Test results taken from PubChem BioAssay (NCI).
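Five concentrations, 48 hours, 96-well plates. TGI: total growth inhibition.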

Legend:
Experiment in all cases: NCI tumour cell line growth inhibition, 48 h
[1] = test system: 786-0 renal
[2] = test system: A549 NSCLC
[3] = test system: ACHN renal
[4] = test system: CAKI-1 renal
[5] = test system: CCRF-CEM leukemia
[6] = test system: COLO 205 colon
[7] = test system: DLD-1 colon
[8] = test system: DMS 114 small cell lung
[9] = test system: DMS 273 small cell lung
[10] = test system: EKVX NSCLC
[11] = test system: HCC-2998 colon
[12] = test system: HCT-116 colon
[13] = test system: HCT-15 colon
[14] = test system: HL-60(TB) leukemia
[15] = test system: HOP-18 NSCLC
[16] = test system: HOP-62 NSCLC
[17] = test system: HOP-92 NSCLC
[18] = test system: HT29 colon
[19] = test system: IGROV1 ovarian
[20] = test system: K-562 leukemia
[21] = test system: KM12 colon
[22] = test system: KM20L2 colon
[23] = test system: LOX IMVI melanoma
[24] = test system: LXFL 529 NSCLC
[25] = test system: M14 melanoma
[26] = test system: M19-MEL melanoma
[27] = test system: MALME-3M melanoma
[28] = test system: MOLT-4 leukemia
[29] = test system: NCI-H226 lung
[30] = test system: NCI-H23 lung
[31] = test system: NCI-H460 lung
[32] = test system: NCI-H522 lung
[33] = test system: OVCAR-3 ovarian
[34] = test system: OVCAR-4 ovarian
[35] = test system: OVCAR-5 ovarian
[36] = test system: OVCAR-8 ovarian
[37] = test system: RPMI-8226 leukemia
[38] = test system: RXF 393 renal
[39] = test system: RXF-631 renal
[40] = test system: SF-268 CNS
[41] = test system: SF-295 CNS
[42] = test system: SF-539 CNS
[43] = test system: SK-MEL-2 melanoma
[44] = test system: SK-MEL-28 melanoma
[45] = test system: SK-MEL-5 melanoma
[46] = test system: SK-OV-3 ovarian
[47] = test system: SN12C renal
[48] = test system: SNB-19 CNS
[49] = test system: SNB-75 CNS
[50] = test system: SNB-78 CNS
[51] = test system: SR leukemia
[52] = test system: SW-620 colon
[53] = test system: TK-10 renal
[54] = test system: U251 CNS
[55] = test system: UACC-62 melanoma
[56] = test system: UO-31 renal
[57] = test system: XF 498 CNS
[58] = test system: UACC-257 melanoma
[59] = test system: A498 renal

CC1Nc2ccccc2NC1C=C(C#N)C#N (stereo not drawn)
TGI [1]: 29.6 µM
TGI [2]: 54.1 µM
TGI [3]: 32.7 µM
TGI [4]: 28.9 µM
TGI [5]: 7.97 µM
TGI [6]: 34.4 µM
TGI [7]: 30.2 µM
TGI [8]: 40.7 µM
TGI [9]: 25.1 µM
TGI [10]: 37.1 µM
TGI [11]: 32.8 µM
TGI [12]: 26.8 µM
TGI [13]: 37.3 µM
TGI [14]: 4.69 µM
TGI [15]: 40.1 µM
TGI [16]: 43.7 µM
TGI [17]: 28.4 µM
TGI [18]: 36.9 µM
TGI [19]: 37.8 µM
TGI [20]: 48.5 µM
TGI [21]: 31.9 µM
TGI [22]: 31 µM
TGI [23]: 25.5 µM
TGI [24]: 25.7 µM
TGI [25]: 25.7 µM
TGI [26]: 30.5 µM
TGI [27]: 32.3 µM
TGI [28]: 24.6 µM
TGI [29]: 36.9 µM
TGI [30]: 34.6 µM
TGI [31]: 42.5 µM
TGI [32]: 25.3 µM
TGI [33]: 29.4 µM
TGI [34]: 31.6 µM
TGI [35]: 33.4 µM
TGI [36]: 23.1 µM
TGI [37]: 29.2 µM
TGI [38]: 31.3 µM
TGI [39]: 24.4 µM
TGI [40]: 29.9 µM
TGI [41]: 28.9 µM
TGI [42]: 26 µM
TGI [43]: 37.7 µM
TGI [44]: 31 µM
TGI [45]: 32.4 µM
TGI [46]: 52.6 µM
TGI [47]: 30.1 µM
TGI [48]: 36.3 µM
TGI [49]: 30.3 µM
TGI [50]: 36.4 µM
TGI [51]: 22.4 µM
TGI [52]: 25.1 µM
TGI [53]: 34.2 µM
TGI [54]: 30.3 µM
TGI [55]: 32.6 µM
TGI [56]: 28.3 µM
TGI [57]: 31.1 µM

NNC(=O)C(=O)N/N=C1\CCCC1C(=O)CCC(=O)Nc1cccc(Cl)c1 (stereo not drawn)
TGI [1]: > 100 µM
TGI [2]: > 100 µM
TGI [3]: > 100 µM
TGI [5]: > 100 µM
TGI [6]: > 100 µM
TGI [7]: > 100 µM
TGI [8]: > 100 µM
TGI [10]: > 100 µM
TGI [11]: > 100 µM
TGI [12]: > 100 µM
TGI [14]: > 100 µM
TGI [15]: > 100 µM
TGI [16]: > 100 µM
TGI [17]: > 100 µM
TGI [18]: > 100 µM
TGI [19]: > 100 µM
TGI [21]: > 100 µM
TGI [22]: > 100 µM
TGI [23]: > 100 µM
TGI [24]: > 100 µM
TGI [25]: > 100 µM
TGI [26]: > 100 µM
TGI [27]: > 100 µM
TGI [28]: > 100 µM
TGI [29]: > 100 µM
TGI [30]: > 100 µM
TGI [31]: > 100 µM
TGI [33]: > 100 µM
TGI [34]: > 100 µM
TGI [35]: > 100 µM
TGI [36]: > 100 µM
TGI [37]: > 100 µM
TGI [38]: > 100 µM
TGI [39]: > 100 µM
TGI [40]: > 100 µM
TGI [41]: > 100 µM
TGI [43]: > 100 µM
TGI [44]: > 100 µM
TGI [45]: > 100 µM
TGI [47]: > 100 µM
TGI [48]: > 100 µM
TGI [49]: > 100 µM
TGI [50]: > 100 µM
TGI [52]: > 100 µM
TGI [53]: > 100 µM
TGI [54]: > 100 µM
TGI [58]: > 100 µM
TGI [55]: > 100 µM
TGI [56]: > 100 µM
TGI [57]: > 100 µM

Cc1nsc2cc(Cl)n(C)c(=O)c12
TGI [1]: > 100 µM
TGI [59]: > 100 µM
TGI [2]: > 100 µM
TGI [3]: > 100 µM
TGI [4]: > 100 µM
TGI [5]: > 100 µM
TGI [6]: > 100 µM
TGI [7]: > 100 µM
TGI [8]: > 100 µM
TGI [9]: > 100 µM
TGI [10]: > 100 µM
TGI [11]: > 100 µM
TGI [12]: > 100 µM
TGI [13]: > 100 µM
TGI [14]: > 100 µM
TGI [16]: > 100 µM
TGI [17]: > 100 µM
TGI [18]: > 100 µM
TGI [19]: > 100 µM
TGI [20]: > 100 µM
TGI [21]: > 100 µM
TGI [22]: > 100 µM
TGI [23]: > 100 µM
TGI [24]: > 100 µM
TGI [25]: > 100 µM
TGI [26]: > 100 µM
TGI [27]: > 100 µM
TGI [28]: > 100 µM
TGI [29]: > 100 µM
TGI [30]: > 100 µM
TGI [31]: > 100 µM
TGI [32]: 69.3 µM
TGI [33]: > 100 µM
TGI [34]: > 100 µM
TGI [35]: > 100 µM
TGI [36]: > 100 µM
TGI [37]: > 100 µM
TGI [38]: > 100 µM
TGI [39]: > 100 µM
TGI [40]: > 100 µM
TGI [42]: > 100 µM
TGI [43]: > 100 µM
TGI [44]: > 100 µM
TGI [45]: > 100 µM
TGI [46]: > 100 µM
TGI [47]: > 100 µM
TGI [48]: > 100 µM
TGI [49]: > 100 µM
TGI [50]: > 100 µM
TGI [51]: > 100 µM
TGI [52]: > 100 µM
TGI [53]: > 100 µM
TGI [54]: > 100 µM
TGI [58]: > 100 µM
TGI [56]: > 100 µM
TGI [57]: > 100 µM
